Assay results: patent publication US11040028B2, “Penicinotam derivative, preparation method and use thereof” (OCEAN UNIVERSITY OF CHINA, priority 2017, dated 2021)

Key:
BHK-21 cells = experiment: Anti-fibrosis activity test: inhibition of BHK-21 cell proliferation (CCK-8); format: cell-based; details: Mesocricetus auratus, BHK-21, 48 h, CCK-8, 48 hours after administration
Procedure, shortened: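 Proliferation inhibition was read as CCK-8 absorbance at 450 nm (2-hour development) relative to untreated blank, with IC50 fitted from the curve. Before that, adhered cells (2×10^4 cells/mL, 24 hours) had 48 hours' treatment at several concentrations, in triplicate, at 37° C/5% CO2; pirfenidone was the reference.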

[1] = tested on: human dermal fibroblasts CCC-ESF-1; experiment: Anti-fibrosis activity test: inhibition of proliferation of human dermal fibroblasts CCC-ESF-1 (CCK-8); format: cell-based; details: Fibroblast; human dermal fibroblasts CCC-ESF-1, CCK-8, 48 hours
Procedure, shortened: (§1)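 Exponentially growing cells, 2×10^4 cells/mL, attached 24 h. Dosed 48 h across concentrations (n=3). CCK-8 2 h → A450; IR vs blank; IC50.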

[2] = tested on: human hepatic stellate cells LX-2; experiment: Anti-fibrosis activity test: inhibition of proliferation of human hepatic stellate cells LX-2 (CCK-8); format: cell-based; details: Homo sapiens, 48 h, human hepatic stellate cells LX-2, CCK-8, 48 hours
Procedure, shortened: as §1

[3] = tested on: human fibrosarcoma cells HT-1080; experiment: Anti-fibrosis activity test: inhibition of proliferation of human fibrosarcoma cells HT-1080 (CCK-8); format: cell-based; details: Homo sapiens, HT-1080, 48 h, human fibrosarcoma cells HT-1080, CCK-8, 48 hours
Procedure, shortened: as §1

[4] = tested on: human embryonic lung fibroblast IMR-90; experiment: Anti-fibrosis activity test: inhibition of proliferation of human embryonic lung fibroblast IMR-90 (CCK-8); format: cell-based; details: human embryonic lung fibroblast IMR-90, CCK-8, 48 hours
Procedure, shortened: as §1

[5] = tested on: cardiac fibroblast RAT-iCell-C002; experiment: Anti-fibrosis activity test: inhibition of proliferation of cardiac fibroblast RAT-iCell-C002 (CCK-8); format: cell-based; details: Cardiac fibroblast, 48 h, cardiac fibroblast RAT-iCell-C002, CCK-8, 48 hours
Procedure, shortened: as §1

[6] = tested on: human lung fibroblasts HFL1; experiment: Anti-fibrosis activity test: inhibition of proliferation of human lung fibroblasts HFL1 (CCK-8); format: cell-based; details: Homo sapiens, HFL1, 48 h, human lung fibroblasts HFL1, CCK-8, 48 hours
Procedure, shortened: as §1

[7] = pirfenidone, stated as known property; cited from earlier work

Cc1ccc(=O)n(-c2ccccc2)c1 [pirfenidone, reference compound]
IC50 (BHK-21 cells): 20 to 100 mM
IC50 [1]: 20 to 100 mM
IC50 [2]: 20 to 100 mM
IC50 [3]: 20 to 100 mM
IC50 [4]: 20 to 100 mM
IC50 [5]: 20 to 100 mM
IC50 [6]: 5 to 20 mM
phototoxic reactions [7]: phototxic reactions, which are produced by pirfenidone
